Reference: ChEMBL document CHEMBL6092221, “Discovery of a Novel Macrocyclic Noncovalent CDK7 Inhibitor for Cancer Therapy” (J Med Chem, 2024)
≈ marks a conversion by molar mass, not a printed value. Each block holds one compound with its values, some of them ahead of it.

What was measured:
[1] = Efflux ratio of permeability in human Caco-2 cells; format: ADME, cell-based
[2] = Metabolic stability in mouse liver microsomes assessed as intrinsic clearance; format: ADME, Microsome; details: read-out: CLH
[3] = AUC(0 to infinity) in female Balb/c nude mouse at 1 mg/kg, iv; format: ADME, organism-based; details: in vivo
[4] = Half life in female Balb/c nude mouse at 10 mg/kg, po; format: ADME, organism-based; details: in vivo
[5] = AUC(0 to infinity) in female Balb/c nude mouse at 10 mg/kg, po; format: ADME, organism-based; details: in vivo
HCC70 [6] = experiment: cells; details: Homo sapiens, HCC70, 72 h
Description: Antiproliferative activity against human HCC70 cells assessed as inhibition of cell proliferation incubated for 72 hrs by celltiter-glo assay

[7] = Clearance in female Balb/c nude mouse at 1 mg/kg, iv; format: ADME, organism-based; details: in vivo
[8] = Oral bioavailability in female Balb/c nude mouse at 10 mg/kg; format: ADME, organism-based; details: in vivo
[9] = Volume of distribution at steady state in female Balb/c nude mouse at 1 mg/kg, iv; format: ADME, organism-based; details: in vivo, read-out: Vdss
[10] = target: Cyclin-dependent kinase 7/ cyclin H (Homo sapiens, UniProt P50613); experiment: Binding affinity to CDK7/CyclinH (unknown origin) assessed as dissociation constant by SPR assay; format: protein-complex assay
Chain of Cyclin-dependent kinase 7/ cyclin H (P51946 whole entry): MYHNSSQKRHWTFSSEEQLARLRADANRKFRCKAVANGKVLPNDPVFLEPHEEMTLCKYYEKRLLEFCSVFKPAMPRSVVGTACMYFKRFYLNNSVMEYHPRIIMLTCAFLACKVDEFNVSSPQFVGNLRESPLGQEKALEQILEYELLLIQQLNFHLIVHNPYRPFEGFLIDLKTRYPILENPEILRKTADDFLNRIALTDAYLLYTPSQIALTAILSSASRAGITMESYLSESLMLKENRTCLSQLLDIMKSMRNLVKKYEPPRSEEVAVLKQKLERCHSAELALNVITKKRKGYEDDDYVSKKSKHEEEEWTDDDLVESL
Chain of Cyclin-dependent kinase 7/ cyclin H (P50613 whole entry): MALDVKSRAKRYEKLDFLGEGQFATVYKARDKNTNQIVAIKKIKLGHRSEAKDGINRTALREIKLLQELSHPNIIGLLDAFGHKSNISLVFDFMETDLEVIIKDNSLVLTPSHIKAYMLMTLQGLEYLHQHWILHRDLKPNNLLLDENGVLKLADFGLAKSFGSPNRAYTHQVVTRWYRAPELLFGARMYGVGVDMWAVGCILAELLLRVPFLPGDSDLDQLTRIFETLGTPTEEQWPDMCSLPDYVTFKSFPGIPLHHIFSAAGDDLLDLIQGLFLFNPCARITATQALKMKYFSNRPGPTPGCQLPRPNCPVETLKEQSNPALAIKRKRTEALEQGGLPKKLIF

[11] = Permeability in human Caco-2 cells; format: ADME, cell-based; details: read-out: permeability
[12] = Cmax in female Balb/c nude mouse at 10 mg/kg, po; format: ADME, organism-based; details: in vivo
[13] = Oral bioavailability in female Balb/c nude mouse at 5 mg/kg; format: ADME, organism-based; details: in vivo
[14] = Cmax in female Balb/c nude mouse at 5 mg/kg, po; format: ADME, organism-based; details: in vivo
[15] = AUC(0 to t) in female Balb/c nude mouse at 5 mg/kg, po; format: ADME, organism-based; details: in vivo
[16] = Half life in female Balb/c nude mouse at 5 mg/kg, po; format: ADME, organism-based; details: in vivo
OVCAR-3 [17] = experiment: cells; details: Homo sapiens, OVCAR-3, 72 h
Description: Antiproliferative activity against human OVCAR-3 cells assessed as inhibition of cell proliferation incubated for 72 hrs by celltiter-glo assay

hERG = hERG (Homo sapiens, UniProt Q12809); experiment: Inhibition of hERG at 10 uM relative to control; format: toxicity
Chain of hERG (Q12809 whole entry): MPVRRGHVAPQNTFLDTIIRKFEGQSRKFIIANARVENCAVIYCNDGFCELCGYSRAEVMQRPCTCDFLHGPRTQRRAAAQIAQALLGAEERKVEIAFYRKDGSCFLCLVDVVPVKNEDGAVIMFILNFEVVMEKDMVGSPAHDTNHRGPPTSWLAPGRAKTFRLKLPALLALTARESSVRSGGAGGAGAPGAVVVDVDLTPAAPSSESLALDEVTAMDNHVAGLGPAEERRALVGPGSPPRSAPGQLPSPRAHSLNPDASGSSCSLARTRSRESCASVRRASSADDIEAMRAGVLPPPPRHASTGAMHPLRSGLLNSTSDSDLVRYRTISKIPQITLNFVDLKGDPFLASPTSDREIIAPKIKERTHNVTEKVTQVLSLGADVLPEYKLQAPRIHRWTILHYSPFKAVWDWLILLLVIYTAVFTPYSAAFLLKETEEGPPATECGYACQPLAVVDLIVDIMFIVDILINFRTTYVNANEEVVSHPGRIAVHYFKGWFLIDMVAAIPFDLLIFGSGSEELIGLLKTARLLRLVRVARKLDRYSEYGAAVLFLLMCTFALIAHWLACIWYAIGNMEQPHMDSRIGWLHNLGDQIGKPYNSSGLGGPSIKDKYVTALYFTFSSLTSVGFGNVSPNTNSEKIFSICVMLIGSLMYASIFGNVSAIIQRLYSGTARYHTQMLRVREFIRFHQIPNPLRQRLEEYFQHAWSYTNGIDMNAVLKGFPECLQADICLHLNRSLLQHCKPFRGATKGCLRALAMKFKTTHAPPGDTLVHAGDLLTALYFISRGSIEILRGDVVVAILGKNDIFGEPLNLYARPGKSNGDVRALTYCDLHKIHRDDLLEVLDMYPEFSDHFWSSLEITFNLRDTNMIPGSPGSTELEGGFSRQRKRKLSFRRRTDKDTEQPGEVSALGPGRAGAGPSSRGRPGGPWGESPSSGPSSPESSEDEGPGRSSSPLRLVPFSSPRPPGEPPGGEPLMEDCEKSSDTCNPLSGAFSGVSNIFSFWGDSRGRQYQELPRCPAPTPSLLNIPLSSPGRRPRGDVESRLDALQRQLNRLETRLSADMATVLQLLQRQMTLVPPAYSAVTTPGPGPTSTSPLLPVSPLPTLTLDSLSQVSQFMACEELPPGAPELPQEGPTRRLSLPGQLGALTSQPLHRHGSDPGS

[18] = Cmax in human HCC70 cells xenografted in female nu/nu mouse plasma at 1 mg/kg, po administered once daily; format: ADME, organism-based
[19] = Drug concentration in rat plasma at 5 mg/kg, po measured after 2 hrs; format: ADME, organism-based
[20] = Volume of distribution at steady state in dog at 1 mg/kg, iv; format: ADME, organism-based, Canis lupus familiaris; details: in vivo, read-out: Vdss
[21] = Clearance in dog at 1 mg/kg, iv; format: ADME, organism-based, Canis lupus familiaris; details: in vivo
[22] = Metabolic stability in rat liver microsomes assessed as intrinsic clearance; format: ADME, Microsome; details: read-out: CLH
[23] = Cmax in rat at 5 mg/kg, po; format: ADME, organism-based; details: in vivo
[24] = Toxicity in female nu/nu mouse xenografted with human HCC70 cells assessed as body weight loss at 1 to 10 mg/kg, po administered once daily and measured for 4 weeks; format: organism-based; details: in vivo, 672 h, dose 1-10 mg/kg
[25] = Drug concentration in rat small intestine at 5 mg/kg, po measured after 8 hrs; format: ADME, organism-based; details: read-out: Ct
[26] = AUC(0 to t) in rat at 1 mg/kg, iv; format: ADME, organism-based; details: in vivo
[27] = Drug concentration in rat plasma at 5 mg/kg, po measured after 0.5 hrs; format: ADME, organism-based
[28] = Volume of distribution at steady state in rat at 1 mg/kg, iv; format: ADME, organism-based; details: in vivo, read-out: Vdss
[29] = Oral bioavailability in rat at 5 mg/kg; format: ADME, organism-based; details: in vivo
[30] = Half life in dog at 1 mg/kg, iv; format: ADME, organism-based, Canis lupus familiaris; details: in vivo
[31] = Plasma protein binding in rat assessed as unbound fraction; format: ADME, cell-free
[32] = Cmax in mouse at 5 mg/kg, po; format: ADME, organism-based; details: in vivo
[33] = AUC(0 to t) in mouse at 5 mg/kg, po; format: ADME, organism-based; details: in vivo
[34] = Drug concentration in rat plasma at 5 mg/kg, po measured after 8 hrs; format: ADME, organism-based
OVCAR-3 [35] = experiment: Antitumor activity against human OVCAR-3 cells xenografted in female Balb/c nude mouse assessed as tumor growth inhibition at 2 mg/kg, po administered once daily and measured on day 22; format: functional; details: OVCAR-3, 528 h, time 22 day, read-out: TGI
[36] = AUC(0 to t) in human HCC70 cells xenografted in female nu/nu mouse plasma at 1 mg/kg, po administered once daily; format: ADME, organism-based
[37] = Half life in rat at 1 mg/kg, iv; format: ADME, organism-based; details: in vivo
[38] = Half life in dog at 2 mg/kg, po; format: ADME, organism-based, Canis lupus familiaris; details: in vivo
[39] = AUC(0 to t) in dog at 2 mg/kg, po; format: ADME, organism-based, Canis lupus familiaris; details: in vivo
[40] = Metabolic stability in human liver microsomes assessed as intrinsic clearance; format: ADME, Microsome; details: read-out: CLH
HCC70 [41] = experiment: Antitumor activity against human HCC70 cells xenografted in female nu/nu mouse assessed as tumor growth inhibition at 1 mg/kg, po administered once daily and measured for 4 weeks; format: functional; details: HCC70, 672 h, read-out: TGI
[42] = Solubility of compound at pH 7.4; format: physicochemical; details: buffer
[43] = Plasma protein binding in mouse assessed as unbound fraction; format: ADME, cell-free
[44] = Oral bioavailability in dog at 2 mg/kg; format: ADME, organism-based, Canis lupus familiaris; details: in vivo
[45] = Half life in mouse at 1 mg/kg, iv; format: ADME, organism-based; details: in vivo, iv, 1 mg/kg
[46] = AUC(0 to t) in mouse at 1 mg/kg, iv; format: ADME, organism-based; details: in vivo
[47] = Cmax in dog at 2 mg/kg, po; format: ADME, organism-based, Canis lupus familiaris; details: in vivo
[48] = AUC (0 to t) in dog at 1 mg/kg, iv; format: ADME, organism-based, Canis lupus familiaris; details: in vivo
[49] = Drug concentration in rat small intestine at 5 mg/kg, po measured after 2 hrs; format: ADME, organism-based; details: read-out: Ct
[50] = AUC (0 to t) in human OVCAR-3 cells xenografted in female Balb/c nude mouse plasma at 5 mg/kg, po administered once daily; format: ADME, organism-based
[51] = Plasma protein binding in human assessed as unbound fraction; format: ADME, cell-free
[52] = AUC(0 to t) in rat at 5 mg/kg, po; format: ADME, organism-based; details: in vivo
[53] = Drug concentration in rat small intestine at 5 mg/kg, po measured after 0.5 hrs; format: ADME, organism-based; details: read-out: Ct
[54] = Oral bioavailability in mouse at 5 mg/kg; format: ADME, organism-based; details: in vivo
[55] = Cmax in human OVCAR-3 cells xenografted in female Balb/c nude mouse plasma at 5 mg/kg, po administered once daily; format: ADME, organism-based
[56] = Clearance in rat at 1 mg/kg, iv; format: ADME, organism-based; details: in vivo
[57] = Half life in mouse at 5 mg/kg, po; format: ADME, organism-based; details: in vivo
[58] = Volume of distribution at steady state in mouse at 1 mg/kg, iv; format: ADME, organism-based; details: in vivo, iv, 1 mg/kg

efflux ratio [1]: > 35.8
CLint scaled [2]: < 13.4 mL/min/kg
AUC(0-inf) [3]: 163 ng·h/mL
half-life [4]: 2 h
AUC(0-inf) [5]: 412 ng·h/mL
clearance [7]: 95.9 mL/min/kg
bioavailability [8]: 22.8%
Vd [9]: 12 L/kg
Kd [10]: 0.06 nM
Papp [11]: < 0.48 ×10⁻⁶ cm/s
Cmax [12]: 89.4 ng/mL
SMILES: CP(C)(=O)c1c2ccc3c(c[nH]c13)-c1nc(ncc1C(F)(F)F)N[C@H]1CC[C@@H](C1)NCCOCCNC2=O
IC50 (HCC70 [6]): 29 nM

efflux ratio [1]: 1.1
bioavailability [13]: 30.9%
Cmax [14]: 343 ng/mL
AUC(0-t) [15]: 563 ng·h/mL
half-life [16]: 1 h
IC50 (OVCAR-3 [17]): 180 nM
clearance [7]: 45.8 mL/min/kg
Vd [9]: 1 L/kg
Kd [10]: 3.5 nM
Papp [11]: 26 ×10⁻⁶ cm/s
SMILES: CN1CCCCO[C@H]2CC[C@@H](C2)Nc2ncc(C(F)(F)F)c(n2)-c2c[nH]c3c(P(C)(C)=O)c(ccc23)C1=O
IC50 (HCC70 [6]): 243 nM

efflux ratio [1]: 32.5
bioavailability [13]: 28.4%
Cmax [14]: 268 ng/mL
AUC(0-t) [15]: 572 ng·h/mL
half-life [16]: 1.5 h
IC50 (OVCAR-3 [17]): 241 nM
clearance [7]: 41.3 mL/min/kg
Vd [9]: 1.5 L/kg
Papp [11]: 0.39 ×10⁻⁶ cm/s
SMILES: CN1CCOCCN(C)[C@H]2CC[C@@H](C2)Nc2ncc(C(F)(F)F)c(n2)-c2c[nH]c3c(P(C)(C)=O)c(ccc23)C1=O
IC50 (HCC70 [6]): 56.1 nM

Continued, compound first:

SMILES: CC1(C)CC[C@H](Nc2ncc(C(F)(F)F)c(-c3c[nH]c4c(P(C)(C)=O)c(C#N)ccc34)n2)CN1 [SY-5609]
inhibition at 10 µM (hERG): 37.1%
Cmax [18]: 33.5 ng/mL
concentration at 2 h [19]: 69.3 ng/mL
Vd [20]: 7.6 L/kg
clearance [21]: 14.5 mL/min/kg
CLint scaled [2]: < 26.7 mL/min/kg
CLint scaled [22]: 4.3 mL/min/kg
Cmax [23]: 76 ng/mL
Activity [24]: Non-toxic
concentration at 8 h [25]: 842 ng/g
AUC(0-t) [26]: 247 ng·h/mL
concentration at 0.5 h [27]: 13.4 ng/mL
Vd [28]: 16.9 L/kg
IC50 (HCC70 [6]): 72 nM
bioavailability [29]: 89.7%
half-life [30]: 6.9 h
fraction unbound [31]: 0.163
Cmax [32]: 339 ng/mL
AUC(0-t) [33]: 1920 ng·h/mL
concentration at 8 h [34]: 43.1 ng/mL
inhibition in vivo at 2 mg/kg (OVCAR-3 [35]): 110%
AUC(0-t) [36]: 138 ng·h/mL
half-life [37]: 3.2 h
half-life [38]: 6.6 h
AUC(0-t) [39]: 1460 ng·h/mL
CLint scaled [40]: 7.2 mL/min/kg
inhibition in vivo at 1 mg/kg (HCC70 [41]): 48.8%
solubility [42]: 172 µg/mL (≈ 351 µM)
fraction unbound [43]: 0.065
bioavailability [44]: 65.8%
t1/2 [45]: 0.6 h
AUC(0-t) [46]: 406 ng·h/mL
Cmax [47]: 123 ng/mL
AUC(0-t) [48]: 1110 ng·h/mL
concentration at 2 h [49]: 5030 ng/g
AUC(0-t) [50]: 387 ng·h/mL
fraction unbound [51]: 0.142
Papp [11]: 2.54 ×10⁻⁶ cm/s
AUC(0-t) [52]: 920 ng·h/mL
concentration at 0.5 h [53]: 2500 ng/g
bioavailability [54]: 94.3%
Cmax [55]: 80 ng/mL
clearance [56]: 67.5 mL/min/kg
half-life [57]: 2.7 h
Vdss [58]: 5.9 L/kg

SMILES: CP(C)(=O)c1c2ccc3c(c[nH]c13)-c1nc(ncc1C(F)(F)F)N[C@H]1CC[C@@H](C1)NCCCCCNC2=O
IC50 (HCC70 [6]): 202 nM

SMILES: CN1C[C@H](F)CCN(C)[C@H]2CC[C@@H](C2)Nc2ncc(C(F)(F)F)c(n2)-c2c[nH]c3c(P(C)(C)=O)c(ccc23)C1=O
efflux ratio [1]: 22.3
IC50 (HCC70 [6]): 44 nM
IC50 (OVCAR-3 [17]): 62.6 nM
Papp [11]: 0.9 ×10⁻⁶ cm/s
